Reference: patent publication US11767310B2, “Nicotinamide RIPK1 inhibitors” (AbbVie Inc., priority 2021, dated 2023)
Where two headings read alike, the source gives them in different places.

Legend:
Experiment in all cases: Kinase binding screen
Details in all cases: read-out: Percent Control at 100 nM Compound Concentration
ABL1-phosphorylated = ABL1-phosphorylated (Homo sapiens (Human), UniProt P00519)
ARK5 = ARK5 (Homo sapiens (Human), UniProt O60285)
CDK4 = CDK4 (Homo sapiens (Human), UniProt P11802)
DRAK2 = DRAK2 (Homo sapiens (Human), UniProt O94768)
EGFR(L858R) = EGFR(L858R) (Homo sapiens (Human), UniProt P00533, L858R)
EPHA5 = EPHA5 (Homo sapiens (Human), UniProt P54756)
EPHB3 = EPHB3 (Homo sapiens (Human), UniProt P54753)
FES = FES (Homo sapiens (Human), UniProt P07332)
GCN2(Kin.Dom.2,S808G) = GCN2(Kin.Dom.2,S808G) (Homo sapiens (Human), UniProt Q9P2K8, S808G)
GRK1 = GRK1 (Homo sapiens (Human), UniProt Q15835)
IGFIR = IGFIR (Homo sapiens (Human), UniProt P08069)
[1] = target: JAK2(JH1domain-catalytic) (Homo sapiens (Human), UniProt O60674)
[2] = target: JAK3(JH1domain-catalytic) (Homo sapiens (Human), UniProt P52333)
MLCK = MLCK (Homo sapiens (Human), UniProt Q32MK0)
MLK1 = MLK1 (Homo sapiens (Human), UniProt P80192)
MST1R = MST1R (Homo sapiens (Human), UniProt Q04912)
MST4 = MST4 (Homo sapiens (Human), UniProt Q9P289)
OSR1 = OSR1 (Homo sapiens (Human), UniProt O95747)
PAK2 = PAK2 (Homo sapiens (Human), UniProt Q13177)
PAK7 = PAK7 (Homo sapiens (Human), UniProt Q9P286)
PIK3CA(C420R) = PIK3CA(C420R) (Homo sapiens (Human), UniProt P42336, C420R)
PIP5K1A = PIP5K1A (Homo sapiens (Human), UniProt Q99755)
[3] = target: RPS6KA4(Kin.Dom.2-C-terminal) (Homo sapiens (Human), UniProt O75676)
[4] = target: RPS6KA5(Kin.Dom.2-C-terminal) (Homo sapiens (Human), UniProt O75582)
STK33 = STK33 (Homo sapiens (Human), UniProt Q9BYT3)
TAOK2 = TAOK2 (Homo sapiens (Human), UniProt Q9UL54)
[5] = target: TYK2(JH2domain-pseudokinase) (Homo sapiens (Human), UniProt P29597)
WEE1 = WEE1 (Homo sapiens (Human), UniProt P30291)

Chain of MST4 (Q9P289 whole entry): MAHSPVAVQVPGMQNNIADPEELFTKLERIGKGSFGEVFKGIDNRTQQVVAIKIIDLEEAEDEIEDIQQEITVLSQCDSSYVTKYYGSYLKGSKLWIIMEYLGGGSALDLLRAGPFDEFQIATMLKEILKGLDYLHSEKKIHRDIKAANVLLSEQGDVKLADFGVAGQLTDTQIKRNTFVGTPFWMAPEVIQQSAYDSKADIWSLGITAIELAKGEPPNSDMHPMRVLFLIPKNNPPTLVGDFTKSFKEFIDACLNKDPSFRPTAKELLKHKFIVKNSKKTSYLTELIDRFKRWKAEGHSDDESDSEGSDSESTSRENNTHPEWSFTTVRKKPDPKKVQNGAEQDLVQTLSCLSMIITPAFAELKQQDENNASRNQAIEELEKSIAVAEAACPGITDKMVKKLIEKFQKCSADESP
Chain of EPHB3 (P54753 34-998): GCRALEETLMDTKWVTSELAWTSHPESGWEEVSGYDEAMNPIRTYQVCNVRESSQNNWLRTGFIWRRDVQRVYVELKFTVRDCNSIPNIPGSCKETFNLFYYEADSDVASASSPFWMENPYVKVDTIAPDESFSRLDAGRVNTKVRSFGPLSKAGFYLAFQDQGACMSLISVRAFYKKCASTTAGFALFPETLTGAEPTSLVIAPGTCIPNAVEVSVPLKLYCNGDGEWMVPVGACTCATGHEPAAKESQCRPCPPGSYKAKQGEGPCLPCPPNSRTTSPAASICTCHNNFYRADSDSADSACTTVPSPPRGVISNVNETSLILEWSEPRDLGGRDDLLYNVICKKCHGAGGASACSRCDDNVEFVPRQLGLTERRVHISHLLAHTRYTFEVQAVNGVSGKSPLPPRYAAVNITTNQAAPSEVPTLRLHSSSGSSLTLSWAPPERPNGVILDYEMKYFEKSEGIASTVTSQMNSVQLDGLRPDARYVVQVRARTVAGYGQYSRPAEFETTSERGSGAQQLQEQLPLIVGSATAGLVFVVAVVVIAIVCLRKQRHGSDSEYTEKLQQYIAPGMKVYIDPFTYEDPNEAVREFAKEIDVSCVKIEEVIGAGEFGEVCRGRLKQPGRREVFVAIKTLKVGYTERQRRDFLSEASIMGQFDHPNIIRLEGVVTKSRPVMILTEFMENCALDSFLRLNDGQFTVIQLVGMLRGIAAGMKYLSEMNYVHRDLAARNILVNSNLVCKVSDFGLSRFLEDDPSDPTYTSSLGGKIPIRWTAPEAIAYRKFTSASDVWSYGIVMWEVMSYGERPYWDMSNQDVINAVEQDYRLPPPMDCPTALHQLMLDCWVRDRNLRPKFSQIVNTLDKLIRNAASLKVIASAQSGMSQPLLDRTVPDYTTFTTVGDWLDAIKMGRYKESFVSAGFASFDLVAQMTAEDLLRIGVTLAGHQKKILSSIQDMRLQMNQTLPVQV
Chain of ABL1-phosphorylated (P00519 whole entry): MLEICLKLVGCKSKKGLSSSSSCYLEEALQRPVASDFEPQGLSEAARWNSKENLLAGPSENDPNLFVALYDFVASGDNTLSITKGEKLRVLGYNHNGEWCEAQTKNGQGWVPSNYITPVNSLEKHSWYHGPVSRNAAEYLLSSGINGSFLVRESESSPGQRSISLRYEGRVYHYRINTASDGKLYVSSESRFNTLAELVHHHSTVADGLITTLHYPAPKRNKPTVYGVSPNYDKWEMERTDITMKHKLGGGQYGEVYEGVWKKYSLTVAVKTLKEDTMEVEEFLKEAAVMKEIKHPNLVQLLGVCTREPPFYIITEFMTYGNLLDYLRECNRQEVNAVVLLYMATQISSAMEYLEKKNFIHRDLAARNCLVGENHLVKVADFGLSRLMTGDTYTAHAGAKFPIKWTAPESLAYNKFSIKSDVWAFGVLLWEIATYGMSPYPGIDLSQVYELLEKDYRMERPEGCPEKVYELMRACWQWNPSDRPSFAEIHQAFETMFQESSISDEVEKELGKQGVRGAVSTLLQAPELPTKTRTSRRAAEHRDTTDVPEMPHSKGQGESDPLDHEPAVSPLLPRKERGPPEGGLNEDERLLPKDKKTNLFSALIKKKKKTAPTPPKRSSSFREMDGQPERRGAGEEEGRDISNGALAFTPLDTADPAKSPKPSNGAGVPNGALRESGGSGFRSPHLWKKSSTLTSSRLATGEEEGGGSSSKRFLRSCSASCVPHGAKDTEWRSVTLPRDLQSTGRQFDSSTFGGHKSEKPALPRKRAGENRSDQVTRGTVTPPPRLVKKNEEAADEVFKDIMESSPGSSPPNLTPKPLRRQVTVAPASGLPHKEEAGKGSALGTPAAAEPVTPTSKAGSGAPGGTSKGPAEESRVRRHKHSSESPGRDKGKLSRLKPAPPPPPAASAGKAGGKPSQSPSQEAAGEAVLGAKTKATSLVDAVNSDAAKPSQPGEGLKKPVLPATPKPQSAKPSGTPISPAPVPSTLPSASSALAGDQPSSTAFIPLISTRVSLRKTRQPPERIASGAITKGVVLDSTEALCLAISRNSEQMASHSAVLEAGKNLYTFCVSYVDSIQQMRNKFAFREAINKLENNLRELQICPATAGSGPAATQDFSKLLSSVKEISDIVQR
Chain of RPS6KA5(Kin.Dom.2-C-terminal) (O75582 426-687): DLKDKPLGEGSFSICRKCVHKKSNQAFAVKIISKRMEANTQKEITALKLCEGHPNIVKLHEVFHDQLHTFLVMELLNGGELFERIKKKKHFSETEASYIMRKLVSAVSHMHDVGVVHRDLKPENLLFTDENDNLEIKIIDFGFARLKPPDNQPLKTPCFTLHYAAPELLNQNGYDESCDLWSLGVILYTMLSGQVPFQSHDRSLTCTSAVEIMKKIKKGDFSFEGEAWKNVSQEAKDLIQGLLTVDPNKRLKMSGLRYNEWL
Chain of JAK3(JH1domain-catalytic) (P52333 822-1111): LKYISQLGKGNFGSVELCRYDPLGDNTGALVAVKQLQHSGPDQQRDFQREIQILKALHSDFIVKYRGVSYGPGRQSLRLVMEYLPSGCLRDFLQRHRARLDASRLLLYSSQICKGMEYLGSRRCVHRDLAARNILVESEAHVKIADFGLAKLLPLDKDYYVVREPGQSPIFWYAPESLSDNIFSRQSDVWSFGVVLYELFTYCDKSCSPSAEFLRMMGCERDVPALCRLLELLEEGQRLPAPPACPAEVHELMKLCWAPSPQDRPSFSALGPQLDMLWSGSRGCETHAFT
Chain of TAOK2 (Q9UL54 whole entry): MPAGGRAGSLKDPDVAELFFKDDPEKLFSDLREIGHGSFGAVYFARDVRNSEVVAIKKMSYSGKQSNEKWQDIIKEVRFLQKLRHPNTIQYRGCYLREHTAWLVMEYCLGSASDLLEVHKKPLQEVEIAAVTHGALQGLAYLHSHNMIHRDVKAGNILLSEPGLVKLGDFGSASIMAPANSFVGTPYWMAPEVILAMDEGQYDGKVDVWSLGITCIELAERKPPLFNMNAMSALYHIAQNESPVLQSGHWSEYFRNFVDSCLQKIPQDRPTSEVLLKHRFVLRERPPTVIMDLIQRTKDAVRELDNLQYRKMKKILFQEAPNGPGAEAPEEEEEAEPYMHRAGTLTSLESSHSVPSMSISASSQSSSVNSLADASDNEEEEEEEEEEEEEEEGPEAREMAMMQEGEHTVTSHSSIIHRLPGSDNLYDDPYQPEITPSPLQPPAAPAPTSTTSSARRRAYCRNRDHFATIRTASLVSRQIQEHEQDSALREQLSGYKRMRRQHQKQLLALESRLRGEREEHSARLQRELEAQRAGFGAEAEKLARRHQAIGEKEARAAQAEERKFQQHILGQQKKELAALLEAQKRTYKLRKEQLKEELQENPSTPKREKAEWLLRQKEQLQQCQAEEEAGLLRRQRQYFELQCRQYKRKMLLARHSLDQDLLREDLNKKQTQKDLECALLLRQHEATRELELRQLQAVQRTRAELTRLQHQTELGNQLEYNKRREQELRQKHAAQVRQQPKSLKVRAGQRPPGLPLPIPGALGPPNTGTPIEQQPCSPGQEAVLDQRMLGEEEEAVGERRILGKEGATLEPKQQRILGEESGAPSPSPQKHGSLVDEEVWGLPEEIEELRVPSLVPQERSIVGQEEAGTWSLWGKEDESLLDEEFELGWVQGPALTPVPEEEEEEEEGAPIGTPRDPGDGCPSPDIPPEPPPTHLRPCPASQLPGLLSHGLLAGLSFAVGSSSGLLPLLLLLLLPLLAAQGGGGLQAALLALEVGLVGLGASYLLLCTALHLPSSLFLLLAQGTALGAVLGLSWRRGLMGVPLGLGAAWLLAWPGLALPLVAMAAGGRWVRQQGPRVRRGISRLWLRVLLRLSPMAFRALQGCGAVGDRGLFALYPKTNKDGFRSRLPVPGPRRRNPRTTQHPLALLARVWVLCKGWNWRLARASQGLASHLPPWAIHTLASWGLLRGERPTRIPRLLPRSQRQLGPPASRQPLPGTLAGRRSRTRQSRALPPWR
Chain of GRK1 (Q15835 whole entry): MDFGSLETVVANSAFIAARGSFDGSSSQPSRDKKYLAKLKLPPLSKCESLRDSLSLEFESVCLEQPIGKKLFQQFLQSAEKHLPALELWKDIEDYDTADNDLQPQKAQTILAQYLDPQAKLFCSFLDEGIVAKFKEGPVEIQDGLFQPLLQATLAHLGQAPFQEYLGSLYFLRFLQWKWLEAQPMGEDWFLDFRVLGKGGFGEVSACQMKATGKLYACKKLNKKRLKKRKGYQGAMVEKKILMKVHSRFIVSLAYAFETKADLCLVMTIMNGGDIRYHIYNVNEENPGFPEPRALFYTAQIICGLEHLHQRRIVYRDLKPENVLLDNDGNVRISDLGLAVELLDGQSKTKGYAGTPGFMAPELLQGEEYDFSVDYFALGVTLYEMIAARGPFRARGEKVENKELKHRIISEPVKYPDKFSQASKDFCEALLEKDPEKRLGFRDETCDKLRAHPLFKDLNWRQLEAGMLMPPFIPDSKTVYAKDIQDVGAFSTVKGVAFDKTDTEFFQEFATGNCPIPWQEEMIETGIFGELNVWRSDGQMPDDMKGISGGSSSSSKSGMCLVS

## CN(C[C@@H](O)Cc1ccccc1)C(=O)c1cncc(C#Cc2cnn(C(F)F)c2)c1 [Example 2, (S)-5-((1-(difluoromethyl)-1H-pyrazol-4-yl)ethynyl)-N-(2-hydroxy-3-phenylpropyl)-N-methylnicotinamide]
ABL1-phosphorylated; ABL1-phosphorylated
  remaining activity at 0.1 µM: 79%
ARK5; ARK5
  remaining activity at 0.1 µM: 100%
CDK4; CDK4
  remaining activity at 0.1 µM: 100%
DRAK2; DRAK2
  remaining activity at 0.1 µM: 100%
EGFR(L858R); EGFR(L858R)
  remaining activity at 0.1 µM: 100%
EPHA5; EPHA5
  remaining activity at 0.1 µM: 100%
EPHB3; EPHB3
  remaining activity at 0.1 µM: 100%
FES; FES
  remaining activity at 0.1 µM: 100%
GCN2(Kin.Dom.2,S808G); GCN2(Kin.Dom.2,S808G)
  remaining activity at 0.1 µM: 95%
GRK1; GRK1
  remaining activity at 0.1 µM: 100%
IGFIR; IGFIR
  remaining activity at 0.1 µM: 100%
[1]; JAK2(JH1domain-catalytic)
  remaining activity at 0.1 µM: 100%
[2]; JAK3(JH1domain-catalytic)
  remaining activity at 0.1 µM: 100%
MLCK; MLCK
  remaining activity at 0.1 µM: 100%
MLK1; MLK1
  remaining activity at 0.1 µM: 100%
MST1R; MST1R
  remaining activity at 0.1 µM: 98%
MST4; MST4
  remaining activity at 0.1 µM: 97%
OSR1; OSR1
  remaining activity at 0.1 µM: 88%
PAK2; PAK2
  remaining activity at 0.1 µM: 97%
PAK7; PAK7
  remaining activity at 0.1 µM: 100%
PIK3CA(C420R); PIK3CA(C420R)
  remaining activity at 0.1 µM: 83%
PIP5K1A; PIP5K1A
  remaining activity at 0.1 µM: 100%
[3]; RPS6KA4(Kin.Dom.2-C-terminal)
  remaining activity at 0.1 µM: 97%
[4]; RPS6KA5(Kin.Dom.2-C-terminal)
  remaining activity at 0.1 µM: 95%
STK33; STK33
  remaining activity at 0.1 µM: 88%
TAOK2; TAOK2
  remaining activity at 0.1 µM: 84%
[5]; TYK2(JH2domain-pseudokinase)
  remaining activity at 0.1 µM: 100%
WEE1; WEE1
  remaining activity at 0.1 µM: 92%

## CN(C[C@H](Cc1ccccc1)OP(=O)(O)O)C(=O)c1cncc(C#Cc2cnn(C(F)F)c2)c1 [Example 19, (S)-1-(5-((1-(difluoromethyl)-1H-pyrazol-4-yl)ethynyl)-N-methylnicotinamido)-3-phenylpropan-2-yl dihydrogen phosphate]
ABL1-phosphorylated
  remaining activity at 0.1 µM: 78%
ARK5
  remaining activity at 0.1 µM: 100%
CDK4
  remaining activity at 0.1 µM: 93%
DRAK2
  remaining activity at 0.1 µM: 100%
EGFR(L858R)
  remaining activity at 0.1 µM: 94%
EPHA5
  remaining activity at 0.1 µM: 100%
EPHB3
  remaining activity at 0.1 µM: 100%
FES
  remaining activity at 0.1 µM: 100%
GCN2(Kin.Dom.2,S808G)
  remaining activity at 0.1 µM: 97%
GRK1
  remaining activity at 0.1 µM: 98%
IGFIR
  remaining activity at 0.1 µM: 98%
[1]
  remaining activity at 0.1 µM: 100%
[2]
  remaining activity at 0.1 µM: 100%
MLCK
  remaining activity at 0.1 µM: 100%
MLK1
  remaining activity at 0.1 µM: 96%
MST1R
  remaining activity at 0.1 µM: 92%
MST4
  remaining activity at 0.1 µM: 84%
OSR1
  remaining activity at 0.1 µM: 89%
PAK2
  remaining activity at 0.1 µM: 92%
PAK7
  remaining activity at 0.1 µM: 100%
PIK3CA(C420R)
  remaining activity at 0.1 µM: 86%
PIP5K1A
  remaining activity at 0.1 µM: 92%
[3]
  remaining activity at 0.1 µM: 100%
[4]
  remaining activity at 0.1 µM: 90%
STK33
  remaining activity at 0.1 µM: 100%
TAOK2
  remaining activity at 0.1 µM: 77%
[5]
  remaining activity at 0.1 µM: 90%
WEE1
  remaining activity at 0.1 µM: 100%
